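These data come from cells grown in 96-well plates and exposed to compound for 48 hours at five concentrations. Abbreviation: GI50, concentration required for 50% inhibition of growth. TGI is the concentration that stops growth completely.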
Columns and labels:
Assay in all cases: DTP human tumour cell line panel, 48 h
CCRF-CEM leukemia = tested on: CCRF-CEM leukemia
HCT-15 colon = tested on: HCT-15 colon
HL-60(TB) leukemia = tested on: HL-60(TB) leukemia
HOP-92 NSCLC = tested on: HOP-92 NSCLC
HT29 colon = tested on: HT29 colon
K-562 leukemia = tested on: K-562 leukemia
M14 melanoma = tested on: M14 melanoma
OVCAR-4 ovarian = tested on: OVCAR-4 ovarian
SN12C renal = tested on: SN12C renal
HCC-2998 colon = tested on: HCC-2998 colon

Compound	GI50 (CCRF-CEM leukemia)	TGI (CCRF-CEM leukemia)	GI50 (HCT-15 colon)	TGI (HCT-15 colon)	GI50 (HL-60(TB) leukemia)	TGI (HL-60(TB) leukemia)	GI50 (HOP-92 NSCLC)	TGI (HOP-92 NSCLC)	GI50 (HT29 colon)	TGI (HT29 colon)	GI50 (K-562 leukemia)	TGI (K-562 leukemia)	GI50 (M14 melanoma)	TGI (M14 melanoma)	GI50 (OVCAR-4 ovarian)	TGI (OVCAR-4 ovarian)	GI50 (SN12C renal)	TGI (SN12C renal)	TGI (HCC-2998 colon)	GI50 (HCC-2998 colon)
Cc1cn2c(/C=C3/C(=O)Nc4ccc(F)cc43)c(C)nc2s1	14.8 µM	> 50 µM	2.73 µM	> 50 µM	1.98 µM	8.15 µM	4.74 µM	29 µM	1.68 µM	14.9 µM	1.72 µM	> 50 µM	2.68 µM	17 µM	12.6 µM	> 50 µM	8.56 µM	27.4 µM	–	–
Cc1ccc(/C=C(\C#N)c2ccccc2)cc1	–	> 100 µM	–	> 100 µM	–	–	–	> 100 µM	–	> 100 µM	–	> 100 µM	–	> 100 µM	–	> 100 µM	–	> 100 µM	> 100 µM	–
CCCN1C(=O)/C(=C/c2ccc(O)cc2)SC1=Nc1ccc(OC)cc1	–	–	12.6 µM	25.7 µM	17.1 µM	50.2 µM	6.91 µM	23.2 µM	22.1 µM	48.4 µM	12.5 µM	> 100 µM	26.8 µM	60.6 µM	13.4 µM	35.2 µM	16.8 µM	34.5 µM	–	–
O=c1c(-c2ccc(O)cc2)coc2cc(OC3OC(CO)C(O)C(O)C3O)cc(O)c12 (centres undefined)	> 10 µM	> 100 µM	–	> 100 µM	> 100 µM	> 100 µM	–	–	–	> 100 µM	> 100 µM	> 100 µM	> 100 µM	> 100 µM	> 100 µM	> 100 µM	–	> 100 µM	> 100 µM	–
NNC(=O)N/N=C1\C(=O)N(c2nccs2)C(=O)C(=O)C1c1nc2ccccc2s1 (centres undefined)	–	–	–	> 100 µM	–	–	–	> 100 µM	–	> 100 µM	–	–	–	> 100 µM	–	> 100 µM	–	> 100 µM	> 100 µM	–
CCOC(=O)c1csc(NC(=O)COc2cccc(/C=C3\CSc4ccccc4C3=O)c2)n1	0.472 µM	–	2.06 µM	4.62 µM	0.638 µM	2.11 µM	–	–	0.608 µM	2.18 µM	> 100 µM	> 100 µM	1.86 µM	4.18 µM	3.69 µM	17.9 µM	1.38 µM	6.58 µM	0.382 µM	0.0447 µM
CCOC(=O)NC(=O)c1cn(CCN2CCNCC2)c(=O)[nH]c1=O	–	> 100 µM	–	> 100 µM	–	> 100 µM	–	> 100 µM	–	> 100 µM	–	> 100 µM	–	> 100 µM	–	> 100 µM	–	> 100 µM	–	–
C[C@@H]1CC[C@@H]2[C@@H](C)C[C@H]3[C@@H]4C(C)(C)OC(=O)[C@]4(C)C(=O)[C@@]23C1=O	–	> 100 µM	16.4 µM	> 100 µM	–	> 100 µM	–	–	–	> 100 µM	–	> 100 µM	–	> 100 µM	–	> 100 µM	–	> 100 µM	> 100 µM	–
CO[C@@H]1[C@H]2[C@@H](C)c3ccoc3C[C@@H]2[C@@]2(C)CC[C@H](OC(=O)c3ccccc3)[C@](C)(C(=O)O)[C@]2(O)[C@@H]1OC(=O)c1ccccc1	22.7 µM	> 50 µM	7.93 µM	16.3 µM	14.7 µM	> 50 µM	–	–	13.5 µM	> 50 µM	15.4 µM	> 50 µM	8.53 µM	24.4 µM	22.1 µM	> 50 µM	7.11 µM	17 µM	–	–
CCCCCCN(C)Cc1ccc(OCCOc2ccc(CN(C)CCCCCC)cc2)cc1	–	–	0.984 µM	2.83 µM	1.91 µM	4.51 µM	0.407 µM	2.05 µM	0.375 µM	1.53 µM	0.452 µM	> 100 µM	0.448 µM	1.83 µM	1.17 µM	2.74 µM	1.35 µM	3.08 µM	1.81 µM	0.491 µM
NNC(=S)Nc1cccc(Cl)c1	–	> 100 µM	–	> 100 µM	–	> 100 µM	–	–	–	> 100 µM	–	> 100 µM	–	> 100 µM	–	> 100 µM	–	> 100 µM	> 100 µM	–
CCN(CC)CC(C)(C)C(=O)/C=C/c1ccc(/C=C/C(=O)C(C)(C)CN(CC)CC)cc1	–	0.31 µM	–	0.901 µM	–	0.22 µM	–	1.46 µM	–	0.534 µM	–	–	–	2.46 µM	–	–	–	1.06 µM	1.56 µM	–
O=C(Nc1cccnc1)c1ccc2ccc3ccc(C(=O)Nc4cccnc4)nc3c2n1	0.169 µM	> 100 µM	0.0518 µM	> 100 µM	0.132 µM	> 100 µM	–	–	0.0458 µM	> 100 µM	0.0526 µM	> 100 µM	0.0799 µM	> 100 µM	0.37 µM	> 100 µM	0.3 µM	> 100 µM	> 100 µM	0.0648 µM
Cc1cc(C)nc(NS(=O)(=O)c2ccc(NC(=O)c3ccc(Cl)c4c(Nc5ccc(S(=O)(=O)N=C(N)N)cc5)c5ccccc5nc34)cc2)n1	–	–	–	–	–	25.1 µM	–	67.7 µM	–	30.2 µM	–	> 100 µM	–	> 100 µM	–	> 100 µM	–	68.7 µM	78.2 µM	–
COc1cc(CC(C(=O)O)C(=O)O)c(OC)cc1CC(C(=O)O)C(=O)O	–	> 100 µM	–	> 100 µM	–	> 100 µM	–	> 100 µM	–	> 100 µM	–	> 100 µM	–	> 100 µM	–	> 100 µM	–	> 100 µM	–	–
Nc1nc(N)c(N=Nc2ccc(C(=O)O)c(O)c2)c(N)n1	–	> 100 µM	–	> 100 µM	–	–	–	> 100 µM	–	> 100 µM	–	> 100 µM	–	> 100 µM	–	35.1 µM	–	> 100 µM	–	–
Cc1ccc(NC(=O)CC/C(CC(=O)C(C)(C)C)=N\Nc2ccc([N+](=O)[O-])cc2[N+](=O)[O-])cc1C	–	98 µM	–	> 100 µM	–	–	–	> 100 µM	–	> 100 µM	–	> 100 µM	–	20.4 µM	–	–	–	–	–	–
Cc1c(C2Cc3ccccc3N2)c2ccccc2n1C (centres undefined)	–	> 100 µM	–	> 100 µM	–	> 100 µM	–	–	–	> 100 µM	–	> 100 µM	–	> 100 µM	–	> 100 µM	–	> 100 µM	> 100 µM	–
